Patent US20040053950A1, “Antimalarial activities and therapeutic properties of febrifugine analogues” (priority 2002, published 2004)
In brackets after ≈: the same amount, converted by molar mass. Where two headings read alike, the source gives them in different places.

How the values were obtained:
Macrophage cells (J774) = assay: In vitro drug toxicity assay, macrophage cells; format: cell-based; conditions: Mus musculus
malarial parasites = assay: In vitro antimalarial activity, parasites in culture (strain not stated); format: cell-based
Experimental: (§1) Potential resistance to halofuginone derivatives of P. falciparum isolates were tested. Isolates of P. falciparum stored in liquid nitrogen are thawed and cultivated in RPMI 1640 media with 6% human erythrocytes supplemented with 10% of human serum. The parasite cultures are maintained in an atmosphere of 5% CO2, 5% O2 and 90% N2 at 37° C. for the assay. The semi-automated micro-dilution technique of Desjardins is used to assess the sensitivity of the parasites to febrifugine and halofuginone derivatives. The incorporation of [3H]-hypoxanthine into the parasites is measured as a function of compound concentration to determine EC50 values.

Plasmodium lophurae = conditions: duck models, purified febrifugine; cited from earlier work
[1] = tested on: P. falciparum chloroquine-sensitive D6-strain; assay: In vitro drug susceptibility assay ([3H]-hypoxanthine incorporation), D6 strain; format: cell-based; conditions: Plasmodium falciparum
Experimental: as §1

Neuronal cells (NG108) = assay: In vitro drug toxicity assay, neuronal cells; format: cell-based; conditions: NG-108
[2] = tested on: P. falciparum chloroquine-resistant W2-strain; assay: In vitro drug susceptibility assay ([3H]-hypoxanthine incorporation), W2 strain; format: cell-based; conditions: Plasmodium falciparum
Experimental: as §1

Plasmodium berghei = assay: Modified Thompson test in P. berghei-infected mice; format: in vivo
Experimental: An active animal use protocol mouse models are used to test the above compounds to determine antimalarial activity by using modified Thompson Test. In this test, IRC mice are inoculated intraperitoneally with P. berghei-infected erythrocytes from donor mice that are anesthetized and exsanguinated via cardiac puncture to collect infected blood. The pooled blood is then diluted with normal mouse serum to a concentration of 1×10^6 P. berghei erythrocytes per inoculum (0.1 ml). The groups of testing and control mice are inoculated with the infected blood on day 0 and then treated with various dosages of halofuginone or the derivatives in aqueous-based vehicles on day 3 through the day required. The drug is administered orally (PO), subcutaneously (SC), intramuscularly (IM), and/or intraperitoneally (IP) up to three times a day, based on the requirements. Blood films and body weights are taken on the third and sixth days post-infection, then at weekly intervals through day 60. Films are Giemsa-stained, examined using light microscopy for the determination of parasitemia. All mice with negative smears at 60 days are considered cured. The data from the in vivo testing verifies the antimalarial efficacy of febrifugine, halofuginone and the halofuginone derivatives in mice and provides new properties of halofuginone and halofuginone derivatives against malarial parasites in vivo.
The modified Thompson test was conducted in eleven groups of mice with eight mice per group. The tested mice were inoculated with P. Berghei on day zero and treated with febrifugines on days three with one oral or subcutaneous treatment per day for three days. […] The parasitemia of the infected mice was reduced to less than 3% with oral administration of 10 mg/kg febrifugines one/day for three days, while mice with the subcutaneous treatment had 30% of parasitemia at the same does as shown in FIGS. 3(a) through 3(d).
Eighty-eight ICR mice were inoculated with P. berghei, and separated into nine groups. Eight of the infected groups were treated with […] different doses of halofuginone twice a day for eight days. One group was treated with physiological saline as control. […] Two mice were cured at the doses of 0.25 and 0.5 mg/kg and survived 60 days after the treatment. […] The parasites were all cleared at the does of 1 mg/kg on day six.

PfMRK = target: T1, PfMRK (Plasmodium falciparum, UniProt P90584); assay: Kinase assay, recombinant plasmodial cyclin-dependent kinase; format: biochemical; conditions: recombinant kinase; dash = no inhibition; read-out: PFMRK (IC50:μM)
T1 sequence (P90584 1-324): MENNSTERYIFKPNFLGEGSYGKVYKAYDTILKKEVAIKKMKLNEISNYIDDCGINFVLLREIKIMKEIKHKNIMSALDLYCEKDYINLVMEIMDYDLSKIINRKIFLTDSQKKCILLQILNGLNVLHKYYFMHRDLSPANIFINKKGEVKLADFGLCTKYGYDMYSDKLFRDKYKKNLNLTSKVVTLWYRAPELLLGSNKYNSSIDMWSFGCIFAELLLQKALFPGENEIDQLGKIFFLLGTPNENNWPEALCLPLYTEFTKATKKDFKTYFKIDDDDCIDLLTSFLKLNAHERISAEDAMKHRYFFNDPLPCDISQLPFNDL
Description: Halofuginone is a known to be a specific collagen gene transcription inhibitor. However, inhibition to other target enzymes by febrifugine, halofuginone and halofuginone derivatives in malarial parasites remain unknown. Quinazoline analogues (the family to which these compounds belong) are known to target dihydrofolate reductase, mammalian EGFR kinase, the stress-activated protein kinase and cyclin dependent kinase. A series of enzymatic assays are used to detect whether the derivatives have inhibition against these enzymes. DHFR assay is conducted using a well-characterized spectrophotometric method. Kinase assays are conducted using radioisotope-labeling technique. The responses of the recombinant kinases to the derivatives are measured in a scintillation b-counter and illustrated using SDS-page gel and PhosphoImager. These tests provide information on the compounds' abilities to interfere with the functions of these enzymes and alter the parasite physiological pathways on a molecular basis.

[3] = Table 4, D6, read-out: IC50 P. falciparum (D6)
[4] = Table 4, W2, read-out: IC50 P. falciparum (W2)
[5] = Table 1, D6 strain, read-out: IC50 against P. falciparum D6 strain
[6] = Table 1, W2 strain, read-out: IC50 against P. falciparum W2 strain

Q: For `O=C(C[C@H]1NCCCC1O)Cn1cnc2ccccc2c1=O` (stereo partly drawn) [Febrifugine, (2′S,3′R)-3-[3-(3-hydroxy-2-piperidyl)acetonyl]-4(3H)quinazolinone], which IC50 (Macrophage cells (J774); Table 4, J774) is on record?
A: 0.081 µg/mL (≈ 0.269 µM)

Q: What about the “in vitro antimalarial activity relative to chloroquine and artemisinin” value (malarial parasites) of the same compound?
A: ten times stronger than chloroquine and artemisinin

Q: And the “antimalarial activity relative to quinine” value (Plasmodium lophurae)?
A: 100 times as active as quinine

Q: What about the IC50 ([1]; D6, read-out: IC50 P. falciparum (D6)) of the same compound?
A: 0.00034 µg/mL (≈ 0.00113 µM)

Q: And the IC50 (Neuronal cells (NG108); Table 4, NG108)?
A: 0.0635 µg/mL (≈ 0.211 µM)

Q: What about the IC50 ([2]; W2, read-out: IC50 P. falciparum (W2)) of the same compound?
A: 0.00053 µg/mL (≈ 0.00176 µM)

Q: Which IC50 (Macrophage cells (J774); Table 4, J774) does the source give for `O=C(CC1NCCCC1O)Cn1cnc2cc(Br)c(Cl)cc2c1=O` (stereo not drawn) [Halofuginone] here?
A: 0.132 µg/mL (≈ 0.319 µM)

Q: What about the “rank of in vitro potency against malarial parasites among febrifugine derivatives” value (malarial parasites) of the same compound?
A: the most potent analog

Q: What about the IC50 [1, 3] of the same compound?
A: 0.00012 µg/mL (≈ 0.000289 µM)

Q: And the IC50 (Neuronal cells (NG108); Table 4, NG108)?
A: 0.177 µg/mL (≈ 0.427 µM)

Q: And the “lethal toxicity in infected mice” value (Plasmodium berghei; dose higher than 1 mg/kg twice a day)?
A: killed the tested mice before the parasites

Q: What about the mouse survival time (Plasmodium berghei; doses of 0.125, 0.25 and 0.5 mg/kg twice a day for eight days, ICR mice) of the same compound?
A: extended the mouse survival time

Q: What about the “parasitemia of the infected mice on day six” value (Plasmodium berghei; doses of 0.25 and 0.5 mg/kg twice a day) of the same compound?
A: below 0.5%

Q: And the “mice cured (survived 60 days after the treatment)” value (Plasmodium berghei; doses of 0.25 and 0.5 mg/kg twice a day for eight days)?
A: Two

Q: What about the IC50 [2, 4] of the same compound?
A: 0.00015 µg/mL (≈ 0.000362 µM)

Q: Which results are given for `O=C(C[C@@H]1CCCCN1)Cn1cnc2ccccc2c1=O` [WR059421]?
A: IC50 (Macrophage cells (J774); Table 2, J774): 0.236 µg/mL (≈ 0.827 µM); IC50 (Macrophage cells (J774); Table 4, J774): 0.492 µg/mL (≈ 1.72 µM); IC50 [1, 5]: 0.0171 µg/mL (≈ 0.06 µM); IC50 [1, 3]: 0.0174 µg/mL (≈ 0.0611 µM); IC50 (Neuronal cells (NG108); Table 2, NG108): 5.38 µg/mL (≈ 18.9 µM); IC50 (Neuronal cells (NG108); Table 4, NG108): 8.93 µg/mL (≈ 31.3 µM); IC50 (PfMRK): ~27 µM; IC50 [2, 6]: 0.026 µg/mL (≈ 0.0912 µM); IC50 [2, 4]: 0.0237 µg/mL (≈ 0.083 µM)

Q: With `O=C(C[C@H]1CCCCN1C(=O)c1ccccc1)Cn1cnc2ccccc2c1=O` [WR059424] as the compound, how does the IC50 (Macrophage cells (J774); Table 4, J774) read?
A: 3.01 µg/mL (≈ 7.73 µM)

Q: What about the IC50 [1, 3] of the same compound?
A: 0.291 µg/mL (≈ 0.748 µM)

Q: And the IC50 (Neuronal cells (NG108); Table 4, NG108)?
A: 36.8 µg/mL (≈ 94.5 µM)

Q: And the IC50 [2, 4]?
A: 0.284 µg/mL (≈ 0.728 µM)

Q: For `C=CCOC(=O)N1CCCC(OCC)[C@H]1CC(=O)Cn1cnc2ccccc2c1=O` (stereo partly drawn) [WR088442], which IC50 (Macrophage cells (J774); Table 2, J774) is on record?
A: 9.1 µg/mL (≈ 22 µM)

Q: What about the IC50 (Macrophage cells (J774); Table 4, J774) of the same compound?
A: 7.09 µg/mL (≈ 17.1 µM)

Q: What about the IC50 [1, 5] of the same compound?
A: 0.203 µg/mL (≈ 0.491 µM)

Q: What about the IC50 [1, 3] of the same compound?
A: 0.193 µg/mL (≈ 0.466 µM)

Q: What about the IC50 (Neuronal cells (NG108); Table 2, NG108) of the same compound?
A: 21.5 µg/mL (≈ 52 µM)

Q: And the IC50 (Neuronal cells (NG108); Table 4, NG108)?
A: 35.1 µg/mL (≈ 84.8 µM)

Q: And the IC50 (PfMRK)?
A: ~25 µM

Q: What about the IC50 [2, 6] of the same compound?
A: 0.288 µg/mL (≈ 0.696 µM)

Q: And the IC50 [2, 4]?
A: 0.245 µg/mL (≈ 0.593 µM)

Q: Which results are given for `C=CCOC(=O)N1CCCC(OC)[C@H]1CC(=O)Cn1cnc2cc3c(cc2c1=O)OCO3` (stereo partly drawn) [WR089904]?
A: IC50 (Macrophage cells (J774); Table 2, J774): 29.2 µg/mL (≈ 65.7 µM); IC50 (Macrophage cells (J774); Table 4, J774): 1.08 µg/mL (≈ 2.43 µM); IC50 [1, 5]: 0.0897 µg/mL (≈ 0.202 µM); IC50 [1, 3]: 0.0897 µg/mL (≈ 0.202 µM); IC50 (Neuronal cells (NG108); Table 2, NG108): 63 µg/mL (≈ 142 µM); IC50 (Neuronal cells (NG108); Table 4, NG108): 53.3 µg/mL (≈ 120 µM); IC50 [2, 6]: 0.129 µg/mL (≈ 0.292 µM); IC50 [2, 4]: 0.129 µg/mL (≈ 0.292 µM)
